One substance from patent publication US20070142462A1, “Method of Treating Cancer” (The University of Utah, priority 2000, published 2007) can be followed below.

Data set [1] has as its system LNCaP.FGC prostate adenocarcinoma cells. Description: MTT proliferation assay, LNCaP.FGC prostate adenocarcinoma. It counts as cell-based, human. Particulars: Catalase 3000 U/ml; 10% FBS; 48 hours; mean±SE vs control. As for the experimental part: (§1) Measurement of Proliferation in Cell Cultures. […] This assay empirically distinguishes between dead and living cells.
(§2) Cell Culture Treatments. The effect of antioxidant treatments on proliferation of malignant cell lines was studied in cultures stimulated with 10% FBS. Cell numbers were quantitated by the MTT assay 24-72 hours later. In some experiments, antioxidants were added immediately after cells were plated. In other experiments, cells were plated and allowed to grow for 24 hours before fresh media with antioxidants was added, and cell numbers were studied by the MTT assay 48 hours later.
(§3) Cells stimulated with 10% FBS were plated at a density of 50,000 cells per well. DMSO and antioxidants were added to cell wells at the indicated concentrations. […] Each value represents a mean of at least 4 experiments.

Data set [2] concerns M1619 cells. The data set is described as follows: Cytotoxicity by trypan blue. The data set is classed as cell-based. Particulars: catalase treatment; 24 hours. The method, then: Measurement of Cytotoxicity and Apoptosis. To assess for cytotoxicity, near confluent cells cultured in 24 well plates were exposed to antioxidants or withdrawn from serum for 24 hours. Medium was removed, and replaced with Dulbecco=s phosphate buffered saline (DPBS) containing 0.1% trypan blue. […] To assess for apoptosis, cells grown on glass slides were treated with antioxidants for 24 hours. Apoptosis was studied by terminal deoxynucleotidyl transferase (TdT) dependent 3′BOH fluorescein end-labeling of DNA fragments, using a Fluorescein-FragEL™ DNA fragmentation detection kit (Oncogene Research Products, Cambridge, Mass.). DNase-treated fixed cells were used as a positive control.

Data set [3] concerns Adeno-squamous lung carcinoma NCI-H596 cells. The data set is described as follows: MTT proliferation assay, NCI-H596 lung carcinoma. The data set is classed as cell-based, human. The conditions noted are these: Catalase 3000 U/ml; 10% FBS; 48 hours; mean±SE vs control. The method, then:
as §1, §2, §3
(In general: Formazan colour is commonly taken as a measure of viable cells.)

Data set [4] concerns breast carcinoma MDA-MB-453 cells. The data set is described as follows: MTT proliferation assay, MDA-MB-453 breast carcinoma. It counts as cell-based, human. Particulars: Catalase 3000 U/ml; 10% FBS; 72 hours; mean±SE vs control. As for the experimental part: as §1, §2, §3
Data set [5] has as its system NF-κB. Description: EMSA of constitutive nuclear NF-κB DNA binding, MDA-MB-453. The data set is classed as cell-based, human. Particulars: MDA-MB-453 breast carcinoma; catalase 3,000 U/ml for 24 hours. As for the experimental part: (§4) The effect of antioxidants on nuclear activation of NF-κB was studied by incubating near confluent (70%) cell cultures with antioxidant treatments for 1-48 hours. Nuclear protein was harvested, and EMSAs were performed using DNA consensus binding sequences, or nuclear translocation of the p65 component of NF-κB was studied by immunoperoxidase staining, as outlined below.
(§5) Electrophoretic Mobility Shift Assays (EMSAs). Nuclear protein was isolated and DNA binding reactions were performed as previously described in detail, Kennedy et al., Am. J. Respir. Cell Mol. Biol. 19:366-378 (1998). Monolayers were washed twice in cold DPBS and equilibrated 10 min on ice with 0.7 ml cold cytoplasmic extraction buffer, CEB (10 mM Tris, pH 7.9, 60 mM KCl, 1 mM EDTA, 1 mM DTT) with protease inhibitors, PI (1 mM Pefabloc, 50 μg/ml antipain, 1 μg/ml leupeptin, 1 μg/ml pepstatin, 40 μg/ml bestatin, 3 μg/ml E-64 and 100 μg/ml chymostatin). […] DNA-protein binding reactions were performed with 2 μg of nuclear protein (as determined by the Pierce method) and 30-80,000 cpm of ^32P-end-labelled double-stranded DNA probe in 10 mM Tris-HCl, pH 7.5, 50 mM NaCl, 0.5 mM EDTA, 0.5 mM DTT, 1 mM MgCl2, 50 μg/ml poly dI-dC, and 4% glycerol. […] Gels were dried and analyzed by autoradiography at −80° C. using an image intensifier screen. […]
In general terms: A gel shift assay detects complexes by their altered migration in electrophoresis.

Data set [6] concerns NF-κB. Description: EMSA of constitutive nuclear NF-κB DNA binding, LNCaP. The data set is classed as cell-based, human. Particulars: LNCaP prostate carcinoma; catalase 3,000 U/ml for 24 hours. The method, then: as §4, §5

In the case of Catalase, the “Percent Growth Inhibition” value came out at 43 ± 7 in data set [1], 69 ± 4 in data set [3] and 49 ± 2 in data set [4]. Also, the “trypan blue dye exclusion” value in data set [2] is given as “significantly increased”. In addition, the “constitutive nuclear DNA binding activity for NF-κB” value in data set [5] and in data set [6] was “suppressed” throughout.
